Reference: the NIST ThermoML archive (doi:10.1021/je4003916)

Assay: xn = mol fraction of the nth substance listed
Conditions: 101 kPa, Liquid; for mass density: Vibrating tube method

COC(=O)CCCCC(=O)OC [dimethyl 1,6-hexanedioate] + CCCCO
viscosity [mPa·s], stabinger viscometer
Conditions | x1 = 0.0999 | x1 = 0.2004 | x1 = 0.2999 | x1 = 0.4003 | x1 = 0.4999 | x1 = 0.6007 | x1 = 0.6996 | x1 = 0.7994 | x1 = 0.8991 | x1 = 1
288.15 K | 2.635 | 2.426 | 2.384 | 2.422 | 2.519 | 2.66 | 2.884 | 3.08 | 3.379 | 3.751
293.15 K | 2.322 | 2.147 | 2.114 | 2.149 | 2.237 | 2.361 | 2.556 | 2.723 | 2.977 | 3.289
298.15 K | 2.057 | 1.911 | 1.886 | 1.92 | 2.003 | 2.11 | 2.287 | 2.425 | 2.649 | 2.91
303.15 K | 1.837 | 1.716 | 1.699 | 1.732 | 1.805 | 1.902 | 2.06 | 2.183 | 2.374 | 2.604
308.15 K | 1.646 | 1.546 | 1.536 | 1.569 | 1.636 | 1.724 | 1.868 | 1.975 | 2.144 | 2.343
313.15 K | 1.481 | 1.4 | 1.396 | 1.428 | 1.491 | 1.572 | 1.704 | 1.797 | 1.947 | 2.121
318.15 K | 1.338 | 1.272 | 1.273 | 1.306 | 1.365 | 1.44 | 1.562 | 1.645 | 1.778 | 1.933
323.15 K | 1.229 | 1.176 | 1.179 | 1.214 | 1.268 | 1.339 | 1.456 | 1.528 | 1.648 | 1.79

C1CCOC1 [tetrahydrofuran] + CCCCO
Conditions | mass density [kg/m3] | viscosity [mPa·s]
288.15 K, x1 = 0.1001 | 820.7 | 2.377
288.15 K, x1 = 0.2003 | 828.11 | 1.788
288.15 K, x1 = 0.3 | 835.61 | 1.416
288.15 K, x1 = 0.4003 | 843.28 | 1.15
288.15 K, x1 = 0.5 | 851.03 | 0.962
288.15 K, x1 = 0.6001 | 858.98 | 0.836
288.15 K, x1 = 0.7003 | 867.19 | 0.723
288.15 K, x1 = 0.8006 | 875.64 | 0.642
288.15 K, x1 = 0.9002 | 884.34 | 0.578
288.15 K, x1 = 1 | 893.29 | 0.522
293.15 K, x1 = 0.1001 | 816.75 | 2.111
293.15 K, x1 = 0.2003 | 823.99 | 1.612
293.15 K, x1 = 0.3 | 831.34 | 1.292
293.15 K, x1 = 0.4003 | 838.84 | 1.061
293.15 K, x1 = 0.5 | 846.43 | 0.895
293.15 K, x1 = 0.6001 | 854.21 | 0.785
293.15 K, x1 = 0.7003 | 862.27 | 0.683
293.15 K, x1 = 0.8006 | 870.54 | 0.61
293.15 K, x1 = 0.9002 | 879.08 | 0.555
293.15 K, x1 = 1 | 887.86 | 0.502
298.15 K, x1 = 0.1001 | 812.77 | 1.882
298.15 K, x1 = 0.2003 | 819.86 | 1.46
298.15 K, x1 = 0.3 | 827.04 | 1.184
298.15 K, x1 = 0.4003 | 834.38 | 0.979
298.15 K, x1 = 0.5 | 841.8 | 0.834
298.15 K, x1 = 0.6001 | 849.43 | 0.736
298.15 K, x1 = 0.7003 | 857.31 | 0.645
298.15 K, x1 = 0.8006 | 865.41 | 0.579
298.15 K, x1 = 0.9002 | 873.78 | 0.528
298.15 K, x1 = 1 | 882.4 | 0.48
303.15 K, x1 = 0.1001 | 808.76 | 1.687
303.15 K, x1 = 0.2003 | 815.69 | 1.331
303.15 K, x1 = 0.3 | 822.71 | 1.087
303.15 K, x1 = 0.4003 | 829.89 | 0.908
303.15 K, x1 = 0.5 | 837.15 | 0.779
303.15 K, x1 = 0.6001 | 844.61 | 0.692
303.15 K, x1 = 0.7003 | 852.32 | 0.61
303.15 K, x1 = 0.8006 | 860.26 | 0.55
303.15 K, x1 = 0.9002 | 868.46 | 0.502
303.15 K, x1 = 1 | 876.91 | 0.459
308.15 K, x1 = 0.1001 | 804.73 | 1.517
308.15 K, x1 = 0.2003 | 811.49 | 1.215
308.15 K, x1 = 0.3 | 818.36 | 1
308.15 K, x1 = 0.4003 | 825.36 | 0.843
308.15 K, x1 = 0.5 | 832.46 | 0.728
308.15 K, x1 = 0.6001 | 839.75 | 0.652
308.15 K, x1 = 0.7003 | 847.3 | 0.576
308.15 K, x1 = 0.8006 | 855.06 | 0.521
308.15 K, x1 = 0.9002 | 863.09 | 0.478
308.15 K, x1 = 1 | 871.38 | 0.44
313.15 K, x1 = 0.1001 | 800.66 | 1.368
313.15 K, x1 = 0.2003 | 807.26 | 1.111
313.15 K, x1 = 0.3 | 813.96 | 0.922
313.15 K, x1 = 0.4003 | 820.81 | 0.782
313.15 K, x1 = 0.5 | 827.74 | 0.681
313.15 K, x1 = 0.6001 | 834.86 | 0.608
313.15 K, x1 = 0.7003 | 842.24 | 0.543
313.15 K, x1 = 0.8006 | 849.83 | 0.494
313.15 K, x1 = 0.9002 | 857.7 | 0.454
313.15 K, x1 = 1 | 865.81 | 0.418
318.15 K, x1 = 0.1001 | 796.55 | 1.238
318.15 K, x1 = 0.2003 | 802.99 | 1.019
318.15 K, x1 = 0.3 | 809.53 | 0.852
318.15 K, x1 = 0.4003 | 816.21 | 0.727
318.15 K, x1 = 0.5 | 822.98 | 0.637
318.15 K, x1 = 0.6001 | 829.93 | 0.571
318.15 K, x1 = 0.7003 | 837.14 | 0.513
318.15 K, x1 = 0.8006 | 844.56 | 0.466
318.15 K, x1 = 0.9002 | 852.25 | 0.428
318.15 K, x1 = 1 | 860.2 | 0.396
323.15 K, x1 = 0.1001 | 792.4 | 1.139
323.15 K, x1 = 0.2003 | 798.67 | 0.949
323.15 K, x1 = 0.3 | 805.05 | 0.795
323.15 K, x1 = 0.4003 | 811.57 | 0.683
323.15 K, x1 = 0.5 | 818.17 | 0.599
323.15 K, x1 = 0.6001 | 824.96 | 0.546
323.15 K, x1 = 0.7003 | 832 | 0.487
323.15 K, x1 = 0.8006 | 839.25 | 0.444
323.15 K, x1 = 0.9002 | 846.77 | 0.41
323.15 K, x1 = 1 | 854.55 | 0.384
